# Measured values taken from patent US10603292B2 (Boehringer Ingelheim International GmbH, priority 2017, dated 2020).
# Experiments:
# [1] = system: oxygen-induced retinopathy (OIR) mouse model; assay: Neovascular tuft formation in oxygen-induced retinopathy (OIR) mouse model; details: neonatal mice, 1.8 mg/kg s.c. at P12 and P14, read at P16, vs vehicle control
# Protocol: Application volume was 10 ml/kg. Control animals received vehicle only.
# In this context P means postnatal day. […] Starting from P12, the avascular area begins to revascularize and at the same time neovascular tufts protrude towards the vitreous. At P16 and P17, aberrant pathological neovascularization peaks and revascularization is still incomplete. Mouse eyes were enucleated, fixed in 4% PFA for at least 24 h, and embedded in paraffin. Every 3rd slide from serial sections (6 μm thick) was taken from around the region of the optic nerve. The PAS-stained sections were examined for the presence of neovascular tufts projecting into the vitreous from the inner limiting membrane of the retina. The neovascular score was defined as the mean number of neovascular cell nuclei per section found in ten sections (five on each side of the optic nerve) per eye. Tufts adjacent to the optic nerve (up to 90 μm from each side) were discriminated from counting. Data are represented as mean of 10 slides ±SEM counted tuft cells with one-way ANOVA testing and p<0.05 regarded as significant.
# [2] = system: STZ-induced diabetic rat model; assay: Retinal function (ERG light sensitivity) in STZ-induced diabetic rat model; type: in vivo; details: STZ diabetic rats, 1.8 mg/kg orally twice daily for 5 weeks; group 3 compared to diabetic vehicle group 2
# Protocol: Male Brown Norway rats (BN rats) were obtained from Charles River (Germany). Hyperglycemia was induced by i.p. injections of STZ (65 mg/kg body weight). […] API was used in the form of its hydrochloride. Retinal function was assessed via electroretinography (ERG) recordings. ERG is a non-invasive electrophysiological technique to assess light-induced electrical activity of different retinal neurons, and allows for quantifying different aspects of retinal function such as dim light or color vision. After induction of diabetes via i.p. STZ application (day 1), diabetic (hyperglycemic) animals were randomized into groups of similar blood glucose concentrations (>20 mM at day 5). At week 5 post diabetes induction, ERG recordings were performed to quantify the extent of neuronal dysfunction in the retina. […] The light sensitivity of rod-driven ERG b-wave responses is a measure for the number of neurons participating in the rod-driven retinal pathway (in particular photoreceptors and downstream bipolar cells), and their sensitivity towards light stimuli in order to produce depolarizing light responses. […]
# AOC3 = molecular target: T1, AOC3 (Mus musculus, UniProt O70423); assay: AOC3 activity in sentinel lung tissue homogenates of OIR mice; details: 1.8 mg/kg s.c.
# T1 sequence (O70423 1-765): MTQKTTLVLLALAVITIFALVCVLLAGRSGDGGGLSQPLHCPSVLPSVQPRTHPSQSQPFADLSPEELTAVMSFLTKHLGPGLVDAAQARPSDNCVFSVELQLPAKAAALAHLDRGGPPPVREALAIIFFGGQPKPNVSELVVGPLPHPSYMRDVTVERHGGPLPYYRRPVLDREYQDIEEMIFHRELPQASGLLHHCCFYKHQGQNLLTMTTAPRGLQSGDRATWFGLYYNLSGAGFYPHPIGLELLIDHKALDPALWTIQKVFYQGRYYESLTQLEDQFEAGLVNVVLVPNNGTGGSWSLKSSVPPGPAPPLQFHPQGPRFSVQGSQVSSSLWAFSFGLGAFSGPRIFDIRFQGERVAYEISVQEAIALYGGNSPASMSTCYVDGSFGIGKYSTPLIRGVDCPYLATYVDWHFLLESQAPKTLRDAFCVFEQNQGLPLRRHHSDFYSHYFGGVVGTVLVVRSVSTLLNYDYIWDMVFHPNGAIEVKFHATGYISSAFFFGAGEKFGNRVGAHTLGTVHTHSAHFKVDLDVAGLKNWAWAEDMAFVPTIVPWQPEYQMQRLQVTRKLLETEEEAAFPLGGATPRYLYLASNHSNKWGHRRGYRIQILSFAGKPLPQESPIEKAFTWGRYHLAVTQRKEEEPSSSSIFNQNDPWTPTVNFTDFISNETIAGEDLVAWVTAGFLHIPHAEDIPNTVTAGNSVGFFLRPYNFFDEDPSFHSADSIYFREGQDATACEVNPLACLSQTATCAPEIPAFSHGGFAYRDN
Increase in normalized light sensitivity of rod-driven ERG b-wave responses [2] [%],Inhibition of AOC3 activity in sentinel lung tissue homogenates (AOC3),Compound,Reduction of retinal neovascular tuft formation (tuft number) [1] [%]
~30,,"CC(C)(C)NC(=O)c1ccc(OC/C(=C/F)CN)cc1 [API, (E)-4-(2-(aminomethyl)-3-fluoroallyloxy)-N-tert-butylbenzamide]",49
,no significant effect,C[C@@H]1C[C@H]2[C@@H]3CCC4=CC(=O)C=C[C@]4(C)[C@@]3(F)[C@@H](O)C[C@]2(C)[C@@]1(O)C(=O)CO [Dexamethasone],57
